Entries after “also recorded” stand apart in the source; their conditions may differ.
Experiments:
[1] = test system: rat middle cerebral arteries; assay: Contraction of middle cerebral arteries 48 h after tMCAO, wire myograph; conditions: for agonist-mediated contraction (% of maximum potassium-mediated contraction): occluded MCAs, 48 h after tMCAO, mean±SD
Method: Mean arterial blood pressure, pCO2, pO2, pH and plasma glucose were measured prior to the occlusion through an arterial tail catheter (Radiometer; LabChart). A rectal thermometer connected to a homoeothermic blanket was used to maintain body temperature at +37° C. during the surgical procedure. An incision was made in the midline of the neck exposing the right common, internal and external carotid arteries. The common and external carotid arteries were permanently ligated by sutures and an incision was made in the common carotid artery. A laser Doppler probe (Perimed, Järfälla, Sweden) was fixed to the thinned skull in the area corresponding to the area supplied by the middle cerebral artery (1 mm posterior to bregma and 6 mm to the right from the midline). A silicone, rubber-coated monofilament (Doccol Corporation, Redlands, Calif., USA) was inserted through the incision until the tip reached the entrance of the right middle cerebral artery (MCA). The occlusion was confirmed by an abrupt reduction of cortical blood flow that was observed using laser Doppler monitoring. After securing the filament, the skin was sutured and anesthesia was discontinued. After two hours of occlusion, the rats were briefly re-anesthetized to remove the filament and allow reperfusion. […] The animals were allowed to recover 48 hours after surgery with free access to food and water before they were anesthetized with CO2 and decapitated. The brains were removed and immediately chilled in ice-cold bicarbonate buffer solution (for composition, see Drugs, Chemicals and Solutions). Right (occluded) and left (non-occluded) middle cerebral arteries were dissected free from adhering tissue and used for myograph studies.
Contractile properties of middle cerebral arteries were examined using a wire Mulvany-Halpern myograph that records isometric tension (Danish Myo Technology A/S, Aarhus, Denmark). Arteries were cut into cylindrical segments (2 mm), and mounted in the myographs by two parallel 40 μm wires inserted through the lumen. The myograph baths contained 5 ml +37° C. bicarbonate buffer solution (for composition, see Drugs, Chemicals and Solutions) continuously aerated with 5% carbon dioxide in oxygen resulting in pH 7.4. […] The other wire was connected to a force displacement transducer attached to an analogue-digital converter (AD Instruments, Chalgrove, UK). The results were recorded on a computer using a Power Lab unit (AD instruments) and the software LabChart (ADInstruments). After the normalization procedure, the arteries were allowed to equilibrate at this tension for 20 min.
The maximum potassium-mediated contraction was used as a reference value (=100%) for contractile capacity. To eliminate endothelial influence, the production of nitric oxide and prostaglandins was blocked with 100 μM L-NG-nitroarginine methyl ester (L-NAME) and 10 μM indomethacin, respectively, which were present in the tissue baths throughout the experiments on the arteries from the in vivo stroke model.
Receptors for 5-hydroxytryptamine receptors (5-HT) were evaluated by adding 5-carboxamidotryptamine (5-CT, a non-selective 5-HT1 agonist) in concentrations ranging from 10^−11 to 10^−5M (Hansen-Schwartz). The angiotensin type 1 (AT1) receptor was evaluated by cumulative applications of Angiotensin II in concentrations ranging from 10^−12 to 10^−6 M. 30 minutes prior to the experiment, the AT2 receptor antagonist PD123319 was added to eliminate any AT2 receptor-mediated effects. […]

[2] = test system: rat basilar arteries (contractile ETB receptors); assay: 48 h organ culture of basilar artery, S6c (ETB agonist)-induced contraction in wire myograph; assay type: cell-based; conditions: for inhibition of S6c-induced contraction (initial screening groups): 1 μM inhibitor, S6c contraction relative to 60 mM K+; for inhibition of S6c-induced contraction (initial screening groups) / IC50: 48 h organ culture; for IC50: Rattus norvegicus, inhibition of S6c-induced contraction, read-out: pIC50 (based on the Emax for S6c) (converted)
Method: (§1) Rats were sedated with O2/CO2 (30/70%) and sacrificed by decapitation. Brains were gently removed and chilled in a cold oxygenated buffer solution of the following composition: 119 mM NaCl, 4.6 mM KCl, 1.5 mM CaCl2, 1.2 mM MgCl2, 1.2 mM NaH2PO4, 15 mM NaHCO3 and 5.5 mM Glucose; pH 7.4. The basilar artery (BA) was carefully dissected from the brain in a physiological buffer solution followed by either OC (naïve animals) or directly mounted in a wire myograph (arteries from rats which has undergone surgical procedures). Segments were incubated for 48 hours at 37° C. in humidified 5% CO2/O2 in DMEM supplemented with streptomycin and penicillin with inhibitors or vehicle (DMSO). Culture media was changed after 24 hours.
(§2) For contractility measurements, both incubated BAs (ex vivo) and BAs after surgical procedure (in vivo) were cut into segments and mounted on a pair of metal wires (40 μm) in a myograph bath. The arteries from OC were mounted the same way after 48 hours in media. One wire was attached to a micro-meter screw which allows for fine adjustments of the distance between the wires, controlling the vascular tone.
(§3) The segments were equilibrated in physiological buffer aerated with 95% O2/5% CO2, pH of 7.4, temperature set at 37° C. and the wires were separated for isometric pretension at 2 Nm^−1. The arterial segments were exposed two or three times with 60 mM K^+, by exchanging the buffer with a 60 mM K^+ buffer solution. To maintain equal osmolarity, a proportional amount of Na^+ had been removed from the buffer. An absolute cut-off was set at 2.0 mN K^+max for inclusion of arterial segments from rats that underwent the surgical procedure. Endothelium function was evaluated with the addition of 5-HT (3.10^−7 M) followed by carbachol (10^−5 M). For arteries from the OC the protocol was as followed: first a cumulative concentration-response curve to sarafotoxin 6C (S6c, 10^−14-10^−7 M), followed by a concentration-response curve to endothelin-1 (ET-1, 10^−14-10^−7 M). At peak ET-1 (10^−7 M), the buffer was changed to a Ca^2+-free buffer containing 10^−7 M ET-1 and nimodipine (L-type of voltage dependent Ca^2+ channel entry blocker, 10^−7 M). A concentration-response curve to Ca^2+ (0.0125-3 mM) was then performed. When vasodilation was investigated arteries was precontracted with U46619 (1.10^−7-3.10^−7 M) or K^+ (41 mM) and cumulative concentration-response curves was performed by adding calcitonin gene-related peptide (CGRP, 10^−12-10^−7 M), carbachol (10^−10-10^−5 M) or SNP (10^−11-10^−4 M).
(§4) Contractile responses of each segment were adjusted according to the length of the artery and are expressed as mN/mm (Nm^−1). […] To compare ET-1 sensitivity, arteries were normalized to the percentage of the individual vessel ET-1max. When the artery reached maximum contraction before the last concentration was added, the curves were constrained to the max contraction. The relative log IC50/log EC50 is the concentration corresponding to a response midway between the estimates of the lower and upper plateaus. The Emax is the maximal contraction in the concentration response curve and ET-1max is the maximal contraction to ET-1. All quantitative data is presented as mean±standard error of the mean (SEM), unless otherwise stated.

rat basilar arteries = assay: 48 h organ culture of basilar artery, endothelium function / vasodilation (carbachol, SNP, CGRP); assay type: cell-based; conditions: 1 μM inhibitor; for endothelium function (10-5 M carbachol on arteries precontracted with 5-HT) vs DMSO: 48 h organ culture
Method: as §1, with “Brains were gently removed and chilled in a cold oxygenated buffer solution of the following composition: 119 mM NaCl, 4.6 mM KCl, 1.5 mM CaCl2, 1.2 mM MgCl2, 1.2 mM NaH2PO4, 15 mM NaHCO3 and 5.5 mM Glucose; pH 7.4.” left out
as §2
as §3, with “The” for “The segments were equilibrated in physiological buffer aerated with 95% O2/5% CO2, pH of 7.4, temperature set at 37° C. and the wires were separated for isometric pretension at 2 Nm^−1. The”, “A concentration-response curve to Ca^2+ (0.0125-3 mM) was then performed.” left out

[3] = test system: rat subarachnoid haemorrhage model; assay: Rat SAH model, intrathecal treatment, myograph of basilar arteries; assay type: in vivo
Method: as §2
as §3, with “The” for “The segments were equilibrated in physiological buffer aerated with 95% O2/5% CO2, pH of 7.4, temperature set at 37° C. and the wires were separated for isometric pretension at 2 Nm^−1. The”, “A concentration-response curve to Ca^2+ (0.0125-3 mM) was then performed.” left out
If there was only one curve above the cut-off, the concentration-response curve to ET-1 was prioritized. Segments with the highest K^+ response were generally allocated to the concentration-response curve to ET-1. […] The Ca^2+ free buffer solution had similar composition as above, but 1.5 mM CaCl2 was exchanged with 0.03 mM EDTA.
as §4
Rats were anesthetized and prepared for cisternal infusion of autologous blood, which simulates a SAH. Sham-operated rats went through the same procedure, omitting the intracisternal blood injection of 300 μL. At the end of the procedure, a PinPort (PNP3F22, Instech, US) was placed at the end of the ICP catheter to provide access for intrathecal (i.t.) injectable treatments by a PinPort injector (PNP-3M, Instech, US). 24 hours post-surgery, the rats received s.c. injections of Carprofen (Norodyl, 5 mg/kg) (Scanvet, Denmark) for analgesia.
The intrathecal (i.t.) treatment volumes were estimated for a cerebrospinal fluid (CSF) volume of approximately 90 μL (21) and the total dose was administered as three treatments (4 hours, 10 hours and 24 hours) through the PinPort in the ICP catheter placed in the cisterna magna during the surgical procedure. The first and third injections were given under fixation of the rat. […] Animals were given 2.5 ml isotonic saline s.c. to avoid dehydration, immediately after surgery and in conjunction with the 10 hours and 24 hours treatments.

[4] = test system: rat middle cerebral arteries (ETB receptor); conditions: former studies, same in vitro setup; cited from earlier work
[5] = test system: rat basilar arteries (contractile ETB receptors); conditions: cited from earlier work
Solubility (statement) = assay type: physicochemical

Row | Compound | inhibition of S6c-induced contraction (initial screening groups) [2] | IC50 [2] [nM] | endothelium function (10-5 M carbachol on arteries precontracted with 5-HT) vs DMSO (rat basilar arteries) | further results
1 | CC(=O)[C@H]1CC[C@H]2[C@@H]3CCC4=CC(=O)CC[C@]4(C)[C@H]3CC[C@]12C [progesterone] | – | – | – | maximum contractile responses of occluded and non-occluded arteries to S6c, Ang II or 5-CT vs placebo ([1]; ovariectomized rats treated 3 weeks, tMCAO): not affected
2 | O=C(c1ccc(F)c(F)c1Nc1ccc(I)cc1F)N1CC(O)([C@@H]2CCCCN2)C1 [Cobimetinib] | Highly effective | 56.2 | – | –
3 | NCCc1c[nH]c2ccc(C(N)=O)cc12 [5-CT, 5-carboxamidotryptamine] | – | – | – | agonist-mediated contraction (% of maximum potassium-mediated contraction) ([1]; intact females): 27±18%; agonist-mediated contraction (% of maximum potassium-mediated contraction) ([1]; ovariectomized females): 8±11%
4 | COc1cc(F)c(F)c(Nc2ccc(I)cc2F)c1NS(=O)(=O)C1(C[C@H](O)CO)CC1 [Refametinib] | Borderline effective | – | – | –
5 | sarafotoxin 6c [S6c] | – | – | – | agonist-mediated contraction (% of maximum potassium-mediated contraction) ([1]; intact females): 22±16%; agonist-mediated contraction (% of maximum potassium-mediated contraction) ([1]; ovariectomized females): 8±9%
6 | CNS(=O)(=O)Nc1nccc(Cc2c(C)c3ccc(Oc4ncccn4)cc3oc2=O)c1F [RO5126766] | Some effect | 2090 | – | –
7 | O=C(NOC[C@H](O)CO)c1ccc(F)c(F)c1Nc1ccc(I)cc1F [PD0325901] | Highly effective; also recorded: almost completely inhibited | 19.5 | significant better endothelium function; also recorded: significant increase | Emax following NO donor sodium nitroprusside (SNP) (rat basilar arteries; 48 h OC): significant differences in the Emax; response to CGRP (rat basilar arteries; 48 h OC): No differences; vasodilation in response to carbachol (10^-10-10^-5 M) (rat basilar arteries; 48 h OC, precontracted with U46619 or K+): improved vasodilation; nimodipine insensitive ET-1max contraction ([3]; SAH + i.t. treatment, Ca2+ curve, 10^-7 M nimodipine): 1.0±0.3 Nm^−1; endothelium function ([3]; animals treated in vivo i.t. after SAH): No significant changes; estimated inhibitor effect in the ex vivo OC study ([2]; at predicted CSF concentration of approximately 10^-7 M): ~75%
8 | Cn1c(=O)c(F)c(Nc2ccc(I)cc2F)c2c(=O)n(C[C@@H](O)CO)cnc21 [TAK-733] | Highly effective | 129 | significant better endothelium function; also recorded: significant increase | –
9 | Cn1cnc2c(F)c(Nc3ccc(Br)cc3F)c(C(=O)NOCCO)cc21 [Binimetinib] | Some effect | 6760 | – | –
10 | N#CC(=C(/N)Sc1ccccc1N)/C(C#N)=C(\N)Sc1ccccc1N [U0126] | Not effective; also recorded: no significant effect | – | poor endothelial response | concentration used for equivalent inhibition of ETB-receptor mediated contraction [4]: 10 µM; effect on ETB specific S6c-induced contractility ([5]; 10 μM, 48 hours OC, known from earlier work): inhibitory effect; established threshold for efficacy ([5]; used till date): 10 µM; solubility (Solubility (statement)): poor solubility
